# Reference: US11427548B2 (Arvinas Operations, Inc., priority 2015, dated 2022)
# Where two headings read alike, the source gives them in different places.
# Biological target: T1, Androgen Receptor (Homo sapiens, UniProt P10275)
# T1 construct: endogenous in cells; host or cells: VCaP cells
# T1 sequence (P10275 1-920): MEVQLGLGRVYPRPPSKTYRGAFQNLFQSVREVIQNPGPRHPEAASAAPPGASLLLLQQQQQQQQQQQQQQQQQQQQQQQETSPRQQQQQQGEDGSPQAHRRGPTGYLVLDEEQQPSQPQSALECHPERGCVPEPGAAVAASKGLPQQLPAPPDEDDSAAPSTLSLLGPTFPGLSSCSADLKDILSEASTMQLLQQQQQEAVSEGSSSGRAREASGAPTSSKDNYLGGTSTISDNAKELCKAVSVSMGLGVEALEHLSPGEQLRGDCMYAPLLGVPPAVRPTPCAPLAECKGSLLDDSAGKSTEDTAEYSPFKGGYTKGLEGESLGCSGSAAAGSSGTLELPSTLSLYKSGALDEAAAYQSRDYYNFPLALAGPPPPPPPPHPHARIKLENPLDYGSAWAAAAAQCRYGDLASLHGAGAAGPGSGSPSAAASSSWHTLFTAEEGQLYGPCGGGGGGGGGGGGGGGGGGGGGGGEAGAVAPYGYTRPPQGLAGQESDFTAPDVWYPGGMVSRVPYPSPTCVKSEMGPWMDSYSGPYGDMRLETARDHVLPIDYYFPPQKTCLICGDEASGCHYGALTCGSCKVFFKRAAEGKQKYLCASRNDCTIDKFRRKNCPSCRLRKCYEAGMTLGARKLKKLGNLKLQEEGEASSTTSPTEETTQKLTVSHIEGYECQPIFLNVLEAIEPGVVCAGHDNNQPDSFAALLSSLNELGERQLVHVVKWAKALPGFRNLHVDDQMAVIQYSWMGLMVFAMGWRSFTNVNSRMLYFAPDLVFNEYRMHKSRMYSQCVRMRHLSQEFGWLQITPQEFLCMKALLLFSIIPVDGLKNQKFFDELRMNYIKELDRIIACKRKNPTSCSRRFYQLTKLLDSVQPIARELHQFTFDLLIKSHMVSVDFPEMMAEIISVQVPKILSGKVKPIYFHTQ
# Test: Androgen Receptor ELISA assay (PathScan AR ELISA) in VCaP cells: AR degradation, Dmax and DC50
# Format: cell-based
# Details: Table 35; for DC50: read-out: VCaP DC50; for Dmax: VCaP
# How it was run: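 VCaP cells in phenol red-free RPMI with 5% charcoal-stripped FBS were grown at least 3 days, then given compound as 7 half-log doses in 0.1% DMSO with 0.1 nM R1881 for 24 h. Lysates went into a sandwich AR ELISA with TMB read at 450 nm.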
# [1] = VCaP cells, read-out: VCaP Dmax (%)
structure (smiles),measurement,setting,value
CC(C)(C)[C@H](NC(=O)CNCCCCCNc1ccc(C(=O)N[C@H]2C(C)(C)[C@H](Oc3ccc(C#N)c(Cl)c3)C2(C)C)cc1)C(=O)N1C[C@H](O)C[C@H]1C(=O)NCc1ccc(C#N)cc1 [Example 480],DC50,VCaP cells,> 501 nM
same,Dmax,[1],26 to 50%
Cc1ncsc1-c1ccc(CNC(=O)[C@@H]2C[C@H](O)CN2C(=O)[C@@H](NC(=O)COCCOc2ccc(-c3ccc(C(=O)N[C@H]4C(C)(C)[C@H](Oc5ccc(C#N)c(Cl)c5)C4(C)C)cc3)cc2)C(C)(C)C)cc1 [Example 481],DC50,VCaP cells,> 501 nM
same,Dmax,[1],< 25%
Cc1ncsc1-c1ccc([C@H](C)NC(=O)[C@@H]2C[C@@H](O)CN2C(=O)[C@@H](NC(=O)COCCCCCNc2ccc(C(=O)N[C@H]3C(C)(C)[C@H](Oc4ccc(C#N)c(Cl)c4)C3(C)C)nc2)C(C)(C)C)cc1 [Example 482],DC50,VCaP cells,< 50 nM
same,Dmax,[1],51 to 70%
Cc1ncsc1-c1ccc([C@H](C)NC(=O)[C@@H]2C[C@@H](O)CN2C(=O)[C@@H](NC(=O)CNCCNc2ccc(-c3ccc(C(=O)N[C@H]4C(C)(C)[C@H](Oc5ccc(C#N)c(Cl)c5)C4(C)C)cc3)cn2)C(C)(C)C)cc1 [Example 483],DC50,VCaP cells,< 50 nM
same,Dmax,[1],> 71%
Cc1ncsc1-c1ccc(CNC(=O)[C@@H]2C[C@@H](O)CN2C(=O)[C@@H](NC(=O)CNCCNc2ccc(-c3ccc(C(=O)N[C@H]4C(C)(C)[C@H](Oc5ccc(C#N)c(Cl)c5)C4(C)C)cc3)cn2)C(C)(C)C)cc1 [Example 484],DC50,VCaP cells,< 50 nM
same,Dmax,[1],51 to 70%
Cc1ncsc1-c1ccc([C@H](C)NC(=O)[C@@H]2C[C@@H](O)CN2C(=O)[C@@H](NC(=O)COCCCCCNc2ccc(C(=O)N[C@H]3C(C)(C)[C@H](Oc4ccc(C#N)c(Cl)c4)C3(C)C)c(F)c2)C(C)(C)C)cc1 [Example 495],DC50,VCaP cells,> 501 nM
same,Dmax,[1],26 to 50%
Cc1ncsc1-c1ccc([C@H](C)NC(=O)[C@@H]2C[C@@H](O)CN2C(=O)[C@@H](NC(=O)COCCCCCNc2ccc(C(=O)N[C@H]3C[C@H](Oc4ccc(C#N)c(Cl)c4)C3)cc2)C(C)(C)C)cc1 [Example 496],DC50,VCaP cells,< 50 nM
same,Dmax,[1],51 to 70%
Cc1ncsc1-c1ccc([C@H](C)NC(=O)[C@@H]2C[C@@H](O)CN2C(=O)[C@@H](NC(=O)COCCCCCNc2ccc(C(=O)N[C@H]3C(C)(C)[C@H](Oc4cnc(C#N)c(C(F)(F)F)c4)C3(C)C)cc2)C(C)(C)C)cc1 [Example 497],DC50,VCaP cells,< 50 nM
same,Dmax,[1],51 to 70%
CC(C)(C)[C@H](NC(=O)CNc1ccc(C#Cc2ccc(C(=O)N[C@H]3C(C)(C)[C@H](Oc4ccc(C#N)c(Cl)c4)C3(C)C)cc2)cn1)C(=O)N1C[C@H](O)C[C@H]1C(=O)NCc1ccc(C#N)cc1 [Example 498],DC50,VCaP cells,< 50 nM
same,Dmax,[1],> 71%
CC(C)(C)[C@H](NC(=O)COCCCCCNc1ccc(C(=O)N[C@H]2C(C)(C)[C@H](Oc3ccc(C#N)c(Cl)c3)C2(C)C)cc1)C(=O)N1C[C@H](O)C[C@H]1C(=O)NCc1ccc(C2=CCNCC2)cc1 [Example 499],DC50,VCaP cells,> 501 nM
same,Dmax,[1],26 to 50%
CC(C)(C)[C@H](NC(=O)CNCCNc1ccc(-c2ccc(C(=O)N[C@H]3C(C)(C)[C@H](Oc4ccc(C#N)c(Cl)c4)C3(C)C)cc2)cn1)C(=O)N1C[C@H](O)C[C@H]1C(=O)NCc1ccc(C#N)cc1 [Example 500],DC50,VCaP cells,< 50 nM
same,Dmax,[1],26 to 50%
CC(C)(C)[C@H](NC(=O)CNCCOc1ccc(-c2ccc(C(=O)N[C@H]3C(C)(C)[C@H](Oc4ccc(C#N)c(Cl)c4)C3(C)C)cc2)cc1)C(=O)N1C[C@H](O)C[C@H]1C(=O)NCc1ccc(C#N)cc1 [Example 501],DC50,VCaP cells,< 50 nM
same,Dmax,[1],51 to 70%
CC(C)(C)[C@H](NC(=O)COCCCCCNc1ccc(C(=O)N[C@H]2C(C)(C)[C@H](Oc3ccc(C#N)c(Cl)c3)C2(C)C)cc1)C(=O)N1C[C@H](O)C[C@H]1C(=O)NCc1ccc(-c2scnc2C(=O)O)cc1 [Example 502],DC50,VCaP cells,51 to 500 nM
same,Dmax,[1],26 to 50%
CC(C)(C)[C@H](NC(=O)COCCCCCNc1ccc(C(=O)N[C@H]2C(C)(C)[C@H](Oc3ccc(C#N)c(Cl)c3)C2(C)C)cc1)C(=O)N1C[C@H](O)C[C@H]1C(=O)NCc1ccc(-c2scnc2N)cc1 [Example 503],DC50,VCaP cells,< 50 nM
same,Dmax,[1],> 71%
CC(C)(C)[C@H](NC(=O)COCCCCCNc1ccc(C(=O)N[C@H]2C(C)(C)[C@H](Oc3ccc(C#N)c(Cl)c3)C2(C)C)cc1)C(=O)N1C[C@H](O)C[C@H]1C(=O)NCc1ccc(-c2ncns2)cc1 [Example 504],DC50,VCaP cells,< 50 nM
same,Dmax,[1],51 to 70%
CC(C)(C)[C@H](NC(=O)COCCCCCNc1ccc(C(=O)N[C@H]2C(C)(C)[C@H](Oc3ccc(C#N)c(Cl)c3)C2(C)C)cc1)C(=O)N1C[C@H](O)C[C@H]1C(=O)NCc1ccc(-n2cnnn2)cc1 [Example 505],DC50,VCaP cells,< 50 nM
same,Dmax,[1],26 to 50%
CC(C)(C)[C@H](NC(=O)COCCCCCNc1ccc(C(=O)N[C@H]2C(C)(C)[C@H](Oc3ccc(C#N)c(Cl)c3)C2(C)C)cc1)C(=O)N1C[C@H](O)C[C@H]1C(=O)NCc1ccc(-n2ncnn2)cc1 [Example 506],DC50,VCaP cells,< 50 nM
same,Dmax,[1],51 to 70%
CNC(=O)[C@@H]1C[C@@H](O)CN1C(=O)[C@@H](NC(=O)COCCCCCOc1ccc(C(=O)N[C@H]2C(C)(C)[C@H](Oc3ccc(C#N)c(Cl)c3)C2(C)C)cc1)C(C)(C)C [Example 507],DC50,VCaP cells,< 50 nM
same,Dmax,[1],26 to 50%
CNCC(NC(=O)[C@@H]1C[C@@H](O)CN1C(=O)[C@@H](NC(=O)COCCCCCOc1ccc(C(=O)N[C@H]2C(C)(C)[C@H](Oc3ccc(C#N)c(Cl)c3)C2(C)C)cc1)C(C)(C)C)c1ccc(-c2scnc2C)cc1 (stereo partly drawn) [Example 508],DC50,VCaP cells,< 50 nM
same,Dmax,[1],> 71%
CC(C)(C)[C@H](NC(=O)COCCCCCOc1ccc(C(=O)N[C@H]2C(C)(C)[C@H](Oc3ccc(C#N)c(Cl)c3)C2(C)C)cc1)C(=O)N1C[C@H](O)C[C@H]1C(=O)O [Example 509],DC50,VCaP cells,51 to 500 nM
same,Dmax,[1],26 to 50%
COc1cc(C#N)ccc1CNC(=O)[C@@H]1C[C@@H](O)CN1C(=O)[C@@H](NC(=O)COCCCCCNc1ccc(C(=O)N[C@H]2C(C)(C)[C@H](Oc3ccc(C#N)c(Cl)c3)C2(C)C)cc1)C(C)(C)C [Example 510],DC50,VCaP cells,< 50 nM
same,Dmax,[1],51 to 70%
CNC(=O)c1ccc(CNC(=O)[C@@H]2C[C@@H](O)CN2C(=O)[C@@H](NC(=O)COCCCCCNc2ccc(C(=O)N[C@H]3C(C)(C)[C@H](Oc4ccc(C#N)c(Cl)c4)C3(C)C)cc2)C(C)(C)C)cc1 [Example 511],DC50,VCaP cells,< 50 nM
same,Dmax,[1],51 to 70%
CC(C)(C)[C@H](NC(=O)COCCCCCNc1ccc(C(=O)N[C@H]2C(C)(C)[C@H](Oc3ccc(C#N)c(Cl)c3)C2(C)C)cc1)C(=O)N1C[C@H](O)C[C@H]1C(=O)NCc1ccc(C(=O)O)cc1 [Example 512],DC50,VCaP cells,51 to 500 nM
same,Dmax,[1],51 to 70%
Cc1ncsc1-c1ccc(CNC(=O)[C@@H]2C[C@@H](O)CN2C(=O)[C@@H](NC(=O)COCCNc2ccc(-c3c(F)cc(C(=O)N[C@H]4C(C)(C)[C@H](Oc5ccc(C#N)c(Cl)c5)C4(C)C)cc3F)cn2)C(C)(C)C)cc1 [Example 513],DC50,VCaP cells,< 50 nM
same,Dmax,[1],> 71%
CNC[C@@H](NC(=O)[C@@H]1C[C@@H](O)CN1C(=O)[C@@H](NC(=O)COCCCCCOc1ccc(C(=O)N[C@H]2C(C)(C)[C@H](Oc3ccc(C#N)c(Cl)c3)C2(C)C)cc1)C(C)(C)C)c1ccc(-c2scnc2C)cc1 [Example 514],DC50,VCaP cells,> 501 nM
same,Dmax,[1],26 to 50%
CNC[C@H](NC(=O)[C@@H]1C[C@@H](O)CN1C(=O)[C@@H](NC(=O)COCCCCCOc1ccc(C(=O)N[C@H]2C(C)(C)[C@H](Oc3ccc(C#N)c(Cl)c3)C2(C)C)cc1)C(C)(C)C)c1ccc(-c2scnc2C)cc1 [Example 515],DC50,VCaP cells,< 50 nM
same,Dmax,[1],> 71%
Cc1ncsc1-c1ccc(CNC(=O)[C@@H]2C[C@@H](O)CN2C(=O)[C@@H](NC(=O)COCCCCCNc2ccc(C(=O)N[C@H]3C(C)(C)[C@H](Oc4ccc(C#N)c(Cl)c4)C3(C)C)cc2)C(C)(C)C)cn1 [Example 516],DC50,VCaP cells,< 50 nM
same,Dmax,[1],> 71%
C[C@H](NC(=O)[C@@H]1C[C@@H](O)CN1C(=O)[C@@H](NC(=O)COCCCCCNc1ccc(C(=O)N[C@H]2C(C)(C)[C@H](Oc3ccc(C#N)c(Cl)c3)C2(C)C)cc1)C(C)(C)C)c1ccc(-c2c[nH]nn2)cc1 [Example 517],DC50,VCaP cells,< 50 nM
same,Dmax,[1],> 71%
CC(C)(C)[C@H](NC(=O)COCCCCCNc1ccc(C(=O)N[C@H]2C(C)(C)[C@H](Oc3ccc(C#N)c(Cl)c3)C2(C)C)cc1)C(=O)N1C[C@H](O)C[C@H]1C(=O)NCc1ccc(-c2nnn[nH]2)cc1 [Example 518],DC50,VCaP cells,> 501 nM
same,Dmax,"read-out: VCaP Dmax (%), VCaP cells",< 25%
COC(=O)[C@@H]1C[C@@H](O)CN1C(=O)[C@@H](NC(=O)COCCCCCOc1ccc(C(=O)N[C@H]2C(C)(C)[C@H](Oc3ccc(C#N)c(Cl)c3)C2(C)C)cc1)C(C)(C)C [Example 519],DC50,VCaP cells,< 50 nM
same,Dmax,[1],26 to 50%
